{
  "source": "PubChem BioAssay AID1963967",
  "about": "(Molecular Pharmacology Branch, DTP, NCI, 2024);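 also: agents incubated with spheroids for one week before read-out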;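 as to viability, T/C: 100% = DMSO vehicle-treated control wells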",
  "tested_on": "855422-203-R-J1-PDC spheroids with HUVEC/MSC, viability",
  "assay": "Anticancer human tumor 855422-203-R-J1-PDC patient-derived bladder carcinoma cell line growth inhibition [PI3K]",
  "conditions": "for IC50: curve of first compound; for viability, T/C: stronger effect = lower value",
  "summary_of_the_method": "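Tumor cells were combined with HUVEC and MSCs into spheroids, then dosed with PI3K-inhibitor combinations over half-log ranges capped near clinical Cmax or 10 microM.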",
  "key": {"[1]": {"conditions": "second compound 0.00316 µM, first compound 0.0316 µM"}, "[2]": {"conditions": "second compound 0.00316 µM, first compound 0.1 µM"}, "[3]": {"conditions": "second compound 0.00316 µM, first compound 0.316 µM"}, "[4]": {"conditions": "second compound 0.00316 µM, first compound 1 µM"}, "[5]": {"conditions": "second compound 0.01 µM, first compound 0.0316 µM"}, "[6]": {"conditions": "second compound 0.01 µM, first compound 0.1 µM"}, "[7]": {"conditions": "second compound 0.01 µM, first compound 0.316 µM"}, "[8]": {"conditions": "second compound 0.01 µM, first compound 1 µM"}, "[9]": {"conditions": "second compound 0.0316 µM, first compound 0.0316 µM"}, "[10]": {"conditions": "second compound 0.0316 µM, first compound 0.1 µM"}, "[11]": {"conditions": "second compound 0.0316 µM, first compound 0.316 µM"}, "[12]": {"conditions": "second compound 0.0316 µM, first compound 1 µM"}, "[13]": {"conditions": "second compound 0.1 µM, first compound 0.0316 µM"}, "[14]": {"conditions": "second compound 0.1 µM, first compound 0.1 µM"}, "[15]": {"conditions": "second compound 0.1 µM, first compound 0.316 µM"}, "[16]": {"conditions": "second compound 0.1 µM, first compound 1 µM"}, "[17]": {"conditions": "second compound 0.316 µM, first compound 0.0316 µM"}, "[18]": {"conditions": "second compound 0.316 µM, first compound 0.1 µM"}, "[19]": {"conditions": "second compound 0.316 µM, first compound 0.316 µM"}, "[20]": {"conditions": "second compound 0.316 µM, first compound 1 µM"}, "[21]": {"conditions": "second compound 1 µM, first compound 0.0316 µM"}, "[22]": {"conditions": "second compound 1 µM, first compound 0.1 µM"}, "[23]": {"conditions": "second compound 1 µM, first compound 0.316 µM"}, "[24]": {"conditions": "second compound 1 µM, first compound 1 µM"}},
  "data": [
    {"smiles": "CC(C)NCC(C(=O)N1CCN(c2ncnc3c2C(C)CC3O)CC1)c1ccc(Cl)cc1", "note": "(centres undefined) + COc1c(OCCCN2CCOCC2)ccc2c3n(c(=NC(=O)c4cnc(N)nc4)nc12)CCN3", "values": [
      {"measurement": "IC50", "setting": "second compound 0.00316 µM", "result": 1.13, "unit": "µM"},
      {"measurement": "IC50", "setting": "second compound 0.01 µM", "result": 1.92, "unit": "µM"},
      {"measurement": "IC50", "setting": "second compound 0.0316 µM", "result": 0.969, "unit": "µM"},
      {"measurement": "IC50", "setting": "second compound 0.1 µM", "result": "< 0.0316", "unit": "µM"},
      {"measurement": "IC50", "setting": "second compound 0.316 µM", "result": "< 0.0316", "unit": "µM"},
      {"measurement": "IC50", "setting": "second compound 1 µM", "result": "< 0.0316", "unit": "µM"},
      {"measurement": "viability, T/C", "setting": "[1]", "result": 108, "unit": "%"},
      {"measurement": "viability, T/C", "setting": "[2]", "result": 62, "unit": "%"},
      {"measurement": "viability, T/C", "setting": "[3]", "result": 71.9, "unit": "%"},
      {"measurement": "viability, T/C", "setting": "[4]", "result": 57.4, "unit": "%"},
      {"measurement": "viability, T/C", "setting": "second compound 0.00316 µM, first compound 3.16 µM", "result": 41, "unit": "%"},
      {"measurement": "viability, T/C", "setting": "second compound 0.00316 µM, first compound 10 µM", "result": 18.8, "unit": "%"},
      {"measurement": "viability, T/C", "setting": "[5]", "result": 79, "unit": "%"},
      {"measurement": "viability, T/C", "setting": "[6]", "result": 73.3, "unit": "%"},
      {"measurement": "viability, T/C", "setting": "[7]", "result": 67, "unit": "%"},
      {"measurement": "viability, T/C", "setting": "[8]", "result": 62, "unit": "%"},
      {"measurement": "viability, T/C", "setting": "second compound 0.01 µM, first compound 3.16 µM", "result": 42, "unit": "%"},
      {"measurement": "viability, T/C", "setting": "second compound 0.01 µM, first compound 10 µM", "result": 15.5, "unit": "%"},
      {"measurement": "viability, T/C", "setting": "[9]", "result": 63.3, "unit": "%"},
      {"measurement": "viability, T/C", "setting": "[10]", "result": 64.3, "unit": "%"},
      {"measurement": "viability, T/C", "setting": "[11]", "result": 55.6, "unit": "%"},
      {"measurement": "viability, T/C", "setting": "[12]", "result": 51.3, "unit": "%"},
      {"measurement": "viability, T/C", "setting": "second compound 0.0316 µM, first compound 3.16 µM", "result": 23, "unit": "%"},
      {"measurement": "viability, T/C", "setting": "second compound 0.0316 µM, first compound 10 µM", "result": 12.6, "unit": "%"},
      {"measurement": "viability, T/C", "setting": "[13]", "result": 30.3, "unit": "%"},
      {"measurement": "viability, T/C", "setting": "[14]", "result": 30.1, "unit": "%"},
      {"measurement": "viability, T/C", "setting": "[15]", "result": 35.3, "unit": "%"},
      {"measurement": "viability, T/C", "setting": "[16]", "result": 24.7, "unit": "%"},
      {"measurement": "viability, T/C", "setting": "second compound 0.1 µM, first compound 3.16 µM", "result": 15.5, "unit": "%"},
      {"measurement": "viability, T/C", "setting": "second compound 0.1 µM, first compound 10 µM", "result": 6.96, "unit": "%"},
      {"measurement": "viability, T/C", "setting": "[17]", "result": 11.1, "unit": "%"},
      {"measurement": "viability, T/C", "setting": "[18]", "result": 10.8, "unit": "%"},
      {"measurement": "viability, T/C", "setting": "[19]", "result": 11.4, "unit": "%"},
      {"measurement": "viability, T/C", "setting": "[20]", "result": 10.5, "unit": "%"},
      {"measurement": "viability, T/C", "setting": "second compound 0.316 µM, first compound 3.16 µM", "result": 6, "unit": "%"},
      {"measurement": "viability, T/C", "setting": "second compound 0.316 µM, first compound 10 µM", "result": 3.59, "unit": "%"},
      {"measurement": "viability, T/C", "setting": "[21]", "result": 5.39, "unit": "%"},
      {"measurement": "viability, T/C", "setting": "[22]", "result": 4.74, "unit": "%"},
      {"measurement": "viability, T/C", "setting": "[23]", "result": 4.07, "unit": "%"},
      {"measurement": "viability, T/C", "setting": "[24]", "result": 4.44, "unit": "%"},
      {"measurement": "viability, T/C", "setting": "second compound 1 µM, first compound 3.16 µM", "result": 2.79, "unit": "%"},
      {"measurement": "viability, T/C", "setting": "second compound 1 µM, first compound 10 µM", "result": 1.58, "unit": "%"}
    ]},
    {"smiles": "CCN1CCN(Cc2ccc(Nc3ncc(F)c(-c4cc(F)c5nc(C)n(C(C)C)c5c4)n3)nc2)CC1", "note": "+ COc1c(OCCCN2CCOCC2)ccc2c3n(c(=NC(=O)c4cnc(N)nc4)nc12)CCN3", "values": [
      {"measurement": "IC50", "setting": "second compound 0.00316 µM", "result": "> 1", "unit": "µM"},
      {"measurement": "IC50", "setting": "second compound 0.01 µM", "result": 0.409, "unit": "µM"},
      {"measurement": "IC50", "setting": "second compound 0.0316 µM", "result": 0.055, "unit": "µM"},
      {"measurement": "IC50", "setting": "second compound 0.1 µM", "result": "< 0.00316", "unit": "µM"},
      {"measurement": "IC50", "setting": "second compound 0.316 µM", "result": "< 0.00316", "unit": "µM"},
      {"measurement": "IC50", "setting": "second compound 1 µM", "result": "< 0.00316", "unit": "µM"},
      {"measurement": "viability, T/C", "setting": "second compound 0.00316 µM, first compound 0.00316 µM", "result": 95.2, "unit": "%"},
      {"measurement": "viability, T/C", "setting": "second compound 0.00316 µM, first compound 0.01 µM", "result": 77.9, "unit": "%"},
      {"measurement": "viability, T/C", "setting": "[1]", "result": 103, "unit": "%"},
      {"measurement": "viability, T/C", "setting": "[2]", "result": 82.6, "unit": "%"},
      {"measurement": "viability, T/C", "setting": "[3]", "result": 77.6, "unit": "%"},
      {"measurement": "viability, T/C", "setting": "[4]", "result": 60.5, "unit": "%"},
      {"measurement": "viability, T/C", "setting": "second compound 0.01 µM, first compound 0.00316 µM", "result": 87.8, "unit": "%"},
      {"measurement": "viability, T/C", "setting": "second compound 0.01 µM, first compound 0.01 µM", "result": 89.9, "unit": "%"},
      {"measurement": "viability, T/C", "setting": "[5]", "result": 85.2, "unit": "%"},
      {"measurement": "viability, T/C", "setting": "[6]", "result": 71.1, "unit": "%"},
      {"measurement": "viability, T/C", "setting": "[7]", "result": 52.9, "unit": "%"},
      {"measurement": "viability, T/C", "setting": "[8]", "result": 41.6, "unit": "%"},
      {"measurement": "viability, T/C", "setting": "second compound 0.0316 µM, first compound 0.00316 µM", "result": 64.8, "unit": "%"},
      {"measurement": "viability, T/C", "setting": "second compound 0.0316 µM, first compound 0.01 µM", "result": 67.6, "unit": "%"},
      {"measurement": "viability, T/C", "setting": "[9]", "result": 52.7, "unit": "%"},
      {"measurement": "viability, T/C", "setting": "[10]", "result": 45.7, "unit": "%"},
      {"measurement": "viability, T/C", "setting": "[11]", "result": 26.7, "unit": "%"},
      {"measurement": "viability, T/C", "setting": "[12]", "result": 20.6, "unit": "%"},
      {"measurement": "viability, T/C", "setting": "second compound 0.1 µM, first compound 0.00316 µM", "result": 28.9, "unit": "%"},
      {"measurement": "viability, T/C", "setting": "second compound 0.1 µM, first compound 0.01 µM", "result": 29.3, "unit": "%"},
      {"measurement": "viability, T/C", "setting": "[13]", "result": 22.7, "unit": "%"},
      {"measurement": "viability, T/C", "setting": "[14]", "result": 15.6, "unit": "%"},
      {"measurement": "viability, T/C", "setting": "[15]", "result": 12.2, "unit": "%"},
      {"measurement": "viability, T/C", "setting": "[16]", "result": 13.9, "unit": "%"},
      {"measurement": "viability, T/C", "setting": "second compound 0.316 µM, first compound 0.00316 µM", "result": 11.5, "unit": "%"},
      {"measurement": "viability, T/C", "setting": "second compound 0.316 µM, first compound 0.01 µM", "result": 9.97, "unit": "%"},
      {"measurement": "viability, T/C", "setting": "[17]", "result": 8.87, "unit": "%"},
      {"measurement": "viability, T/C", "setting": "[18]", "result": 7.84, "unit": "%"},
      {"measurement": "viability, T/C", "setting": "[19]", "result": 8.06, "unit": "%"},
      {"measurement": "viability, T/C", "setting": "[20]", "result": 8.7, "unit": "%"},
      {"measurement": "viability, T/C", "setting": "second compound 1 µM, first compound 0.00316 µM", "result": 4.05, "unit": "%"},
      {"measurement": "viability, T/C", "setting": "second compound 1 µM, first compound 0.01 µM", "result": 5.98, "unit": "%"},
      {"measurement": "viability, T/C", "setting": "[21]", "result": 4.02, "unit": "%"},
      {"measurement": "viability, T/C", "setting": "[22]", "result": 4.36, "unit": "%"},
      {"measurement": "viability, T/C", "setting": "[23]", "result": 4.5, "unit": "%"},
      {"measurement": "viability, T/C", "setting": "[24]", "result": 5.49, "unit": "%"}
    ]}
  ]
}
